Measurements: patent US4642341A, “Carbapenem antibiotics” (priority 1985, dated 1987)
In brackets after ≈: the same amount, converted by molar mass. Like-named read-outs stand apart in the source and are kept apart here.

Assays:
[1] = Half-life in phosphate buffer pH 7.4; type: physicochemical; conditions: phosphate buffer
Description: To a solution of p-nitrobenzyl 3-[2-(1-pyridinium)ethylthio)]-6α[1-(R)-hydroxyethyl]-7-oxo-1-azabicyclo(3.2.0)hept-2-ene-carboxylate diphenylphosphate (0.16 g, 0.22 mmol) in wet tetrahydrofuran (10mL) was added ether (10mL), potassium phosphate monobasic-sodium hydroxide buffer pH 7.4 (16 mL, 0.05 M) and 10% palladium on charcoal (0.16 g). The resulting mixture was hydrogenated under 40 psi for 1 h at 25° C. The two phases were separated and the organic phase was extracted with water (2×3 mL). The aqeuous solutions were combined, washed with ether (2×10 ml) and poured on top of a column (1.5×6.2 cm) pf μ-bondapak C-18 after the traces of organic solvents have been removed under vacuum. Elution of the column with water gave after lyophylization of the appropriate fractions a yellowish powder 0.062 g (84%), ir (KBr) .nu.max : 3700-3000 (OH), 1755 (C--O of β-lactam), 1630 (pyridinium), 1590 cm^-1 (carboxylate), ^1 Hmr (D2 O): 1.22 (3H, d, J=6.4 Hz, CH3 CHOH), 2.92 (d, J=9.1 Hz, H-4), 2.97 (d, J=9.1 Hz, H-4), 3.20 (dd, J=2.5 Hz, J=6.1 Hz, H-6), 3.44 (t, J=6.0 Hz, CH2 S), 3.93 (dd, J=9.1 Hz, J=2.5 Hz, H-5), 4.82 (t, J=6.0 Hz, CH2 N^+), 8.04 (m, Hm of pyridinium), 8.5 (m, Hp of pyridinium), 8.82 (dd, J=3.2. Hz, J=1.1 Hz, Ho of pyridinium), uv (H2 O) λ max : 259 (ε5800), 296 (ε7030) mμ, .tau.1/2 =13.5 h (measured at a concentration of 10^-4 M in phosphate buffer pH 7.4 at 36.8° C.).

H. influenzae A-9833 = test: Minimum Inhibitory Concentration, tube dilution; type: cell-based; conditions: Haemophilus influenzae, A9833; overnight 37° C.; table 6; read-out: MIC
M. morganii A15153 = test: Minimum Inhibitory Concentration, tube dilution; type: cell-based; conditions: Morganella morganii, A15153, overnight 37° C.; table 6
P. vulgaris A21559 = test: Minimum Inhibitory Concentration, tube dilution; type: cell-based; conditions: Proteus vulgaris, A21559, overnight 37° C.; table 6
K. pneumoniae A20468 = test: Minimum Inhibitory Concentration, tube dilution; type: cell-based; conditions: Klebsiella pneumoniae, A20468
[2] = system: S. aureus A15097 (Meth-res.); test: Minimum Inhibitory Concentration, tube dilution; type: cell-based; conditions: Staphylococcus aureus, table 6
P. aeruginosa A21213 = test: Minimum Inhibitory Concentration, tube dilution; type: cell-based; conditions: Pseudomonas aeruginosa
[3] = Pharmacokinetic parameters in the mouse after intramuscular dose; type: in vivo, mice; conditions: im, 20 mg/kg; for AUC / Cmax / half-life: blood; for half-life: read-out: T1/2 (blood); for dose excreted: urine, read-out: Urine Recovery
Description: Also shown is the urinary recovery in the mice.
Compounds were solubilized in 0.1 M phosphate buffer pH 7.

H. influenzae A21518 = test: Minimum Inhibitory Concentration, tube dilution; type: cell-based; conditions: Haemophilus influenzae, overnight 37° C., table 6
S. marcescens A20019 = test: Minimum Inhibitory Concentration, tube dilution; type: cell-based; conditions: Serratia marcescens, A20019, overnight 37° C.; table 6
S. faecalis A20688 = test: Minimum Inhibitory Concentration, tube dilution; type: cell-based; conditions: Enterococcus faecalis
P. aeruginosa A9843A [4] = test: animal or person; type: in vivo, mice; conditions: Pseudomonas aeruginosa, in Mus musculus, im, 3.5 h, read-out: PD50 /treatment
Description: (§1) Drugs were administered i.m. 0 to 2 hours post-infection (A9606) or 1 and 3.5 hours post-infection for the others.

P. mirabilis A9900 = test: Protective effect, intramuscular treatment of infected mice (table 7); type: in vivo; conditions: Proteus mirabilis, A9900, im; i.m. 1 and 3.5 hours post-infection; ~1×10^7 organisms i.p.; read-out: PD50 /treatment
Description: as §1

P. aeruginosa A20481 = test: as above; type: in vivo; conditions: Pseudomonas aeruginosa, A20481, im; i.m. 1 and 3.5 hours post-infection; ~1×10^5 organisms i.p.; read-out: PD50 /treatment
Description: as §1

S. aureus A9606 = test: as above; type: in vivo; conditions: Staphylococcus aureus, A9606, im; i.m. 0 to 2 hours post-infection; ~1×10^9 organisms i.p.; read-out: PD50 /treatment
Description: as §1

P. aeruginosa A-9843A = test: Minimum Inhibitory Concentration, tube dilution; type: cell-based; conditions: Pseudomonas aeruginosa, A9843A, overnight 37° C.; table 6; read-out: MIC
B. fragilis A22696 = test: Minimum Inhibitory Concentration, tube dilution; type: cell-based; conditions: Bacteroides fragilis
S. aureus A-9537 = test: Minimum Inhibitory Concentration, tube dilution; type: cell-based; conditions: Staphylococcus aureus, table 6, read-out: MIC
E. coli A20341-1 = test: Minimum Inhibitory Concentration, tube dilution; type: cell-based; conditions: Escherichia coli, A203411, overnight 37° C.; table 6
S. pyogenes A-9604 = test: Minimum Inhibitory Concentration, tube dilution; type: cell-based; conditions: Streptococcus pyogenes, A9604, overnight 37° C.; table 6
P. mirabilis A-9900 = test: Minimum Inhibitory Concentration, tube dilution; type: cell-based; conditions: Proteus mirabilis, A9900, overnight 37° C.; table 6
S. pneumoniae A-9585 = test: Minimum Inhibitory Concentration, tube dilution; type: cell-based; conditions: Streptococcus pneumoniae, A9585, overnight 37° C.; table 6
[5] = system: S. aureus A-9606 (Pen-res.); test: Minimum Inhibitory Concentration, tube dilution; type: cell-based; conditions: Staphylococcus aureus, Pen-res; table 6
E. coli A15119 = test: Minimum Inhibitory Concentration, tube dilution; type: cell-based; conditions: Escherichia coli, A15119, overnight 37° C.; table 6
B. fragilis A22862 = test: Minimum Inhibitory Concentration, tube dilution; type: cell-based; conditions: Bacteroides fragilis, overnight 37° C., table 6
E. cloacae A9659 = test: Minimum Inhibitory Concentration, tube dilution; type: cell-based; conditions: Enterobacter cloacae, A9659, overnight 37° C.; table 6; read-out: MIC
P. rettgeri A22424 = test: Minimum Inhibitory Concentration, tube dilution; type: cell-based; conditions: Providencia rettgeri, overnight 37° C., table 6, read-out: MIC
E. cloacae A-9656 = test: Minimum Inhibitory Concentration, tube dilution; type: cell-based; conditions: Enterobacter cloacae, A9656; overnight 37° C.; table 6
P. aeruginosa A9843A [6] = test: animal or person; type: in vivo, mice; conditions: Pseudomonas aeruginosa, in Mus musculus, im, read-out: PD50 /treatment
Description: The PD50 (dose in mg/kg required to give protection to 50% of the infected mice) is indicated.

K. pneumoniae A-9664 = test: Minimum Inhibitory Concentration, tube dilution; type: cell-based; conditions: Klebsiella pneumoniae, A9664, overnight 37° C.; table 6
[7] = A20688, overnight 37° C., table 6, read-out: MIC
[8] = A21213, overnight 37° C., table 6, read-out: MIC

| SMILES | MIC (H. influenzae A-9833) | MIC (M. morganii A15153) | MIC (P. vulgaris A21559) | MIC [2] | AUC [3] | Cmax [3] | half-life [3] | dose excreted [3] | MIC (H. influenzae A21518) | MIC (S. marcescens A20019) | MIC (S. faecalis A20688; [7]) | ED50 (P. aeruginosa A9843A [4]) | MIC (P. aeruginosa A-9843A) | MIC (S. aureus A-9537; A9537, overnight 37° C.) | MIC (E. coli A20341-1) | MIC (S. pyogenes A-9604) | MIC (P. mirabilis A-9900) | MIC (S. pneumoniae A-9585) | MIC [5] | MIC (B. fragilis A22862) | also measured |
| --- | --- | --- | --- | --- | --- | --- | --- | --- | --- | --- | --- | --- | --- | --- | --- | --- | --- | --- | --- | --- | --- |
| C[C@@H](O)[C@H]1C(=O)N2C(C(=O)[O-])=C(SCC[n+]3ccc(CO)cc3)C[C@H]12 [Example 6, (5R, 6S)-3-[2-(4-hydroxymethylpyridinio)ethylthio]-6-[1-(R)-hydroxyethyl]-7-oxo-1-azabicyclo[3.2.0]hept-2-ene-2-carboxylate] | > 32 µg/mL | 0.03 µg/mL (≈ 0.0823 µM) | 0.03 µg/mL (≈ 0.0823 µM) | > 63 µg/mL | 7700 ng·h/mL | 15200 ng/mL | 0.167 h | 38 ± 13% | > 32 µg/mL | 0.06 µg/mL (≈ 0.165 µM) | 1 µg/mL (≈ 2.74 µM) | 0.9 mg/kg | 4 µg/mL (≈ 11 µM) | 0.03 µg/mL (≈ 0.0823 µM) | 0.03 µg/mL (≈ 0.0823 µM) | 0.03 µg/mL (≈ 0.0823 µM) | 0.06 µg/mL (≈ 0.165 µM) | 0.03 µg/mL (≈ 0.0823 µM) | 0.03 µg/mL (≈ 0.0823 µM) | 0.06 µg/mL (≈ 0.165 µM) | half-life ([1]; pH 7.4, t1/2 (half-life)): 14.5 h; MIC (K. pneumoniae A20468): 0.5 µg/mL (≈ 1.37 µM); MIC (P. aeruginosa A21213; A21213): 0.5 µg/mL (≈ 1.37 µM); ED50 (P. mirabilis A9900): ~16 mg/kg; ED50 (P. aeruginosa A20481): 0.6 mg/kg; ED50 (S. aureus A9606): ~3 mg/kg; MIC (B. fragilis A22696): 0.5 µg/mL (≈ 1.37 µM); MIC (E. coli A15119): 0.03 µg/mL (≈ 0.0823 µM) |
| Cc1cccc[n+]1CCSC1=C(C(=O)[O-])N2C(=O)[C@H]([C@@H](C)O)[C@H]2C1 [Example 7, 3-[2-(1-(2-methylpyridinium))ethylthio]-6α-[1-(R)-hydroxyethyl]-7-oxo-1-azabicyclo(3.2.0)hept-2-ene-carboxylate] | > 32 µg/mL | 0.03 µg/mL (≈ 0.0861 µM) | 0.03 µg/mL (≈ 0.0861 µM) | > 63 µg/mL | 7000 ng·h/mL | 15000 ng/mL | 0.183 h | 49 ± 9% | > 32 µg/mL | 0.03 µg/mL (≈ 0.0861 µM) |  | 0.9 mg/kg | 4 µg/mL (≈ 11.5 µM) | 0.03 µg/mL (≈ 0.0861 µM) | 0.03 µg/mL (≈ 0.0861 µM) | 0.03 µg/mL (≈ 0.0861 µM) | 0.03 µg/mL (≈ 0.0861 µM) | 0.03 µg/mL (≈ 0.0861 µM) | 0.03 µg/mL (≈ 0.0861 µM) | 0.06 µg/mL (≈ 0.172 µM) | half-life at 100 µM ([1]; pH 7.4, τ1/2 (half-life)): 15 h; MIC (E. cloacae A9659): 0.06 µg/mL (≈ 0.172 µM); MIC (P. aeruginosa A21213; [8]): 1 µg/mL (≈ 2.87 µM); MIC (S. faecalis A20688; A20688): 0.5 µg/mL (≈ 1.44 µM); ED50 (P. mirabilis A9900): ~22 mg/kg; ED50 (P. aeruginosa A20481): 1.4 mg/kg; ED50 (S. aureus A9606): 0.6 mg/kg; MIC (B. fragilis A22696): 0.5 µg/mL (≈ 1.44 µM); MIC (S. aureus A-9537; A9537, 50% serum): 0.03 µg/mL (≈ 0.0861 µM); MIC (E. coli A15119): 0.03 µg/mL (≈ 0.0861 µM) |
| Cc1cccc(C)[n+]1CCSC1=C(C(=O)[O-])N2C(=O)[C@H]([C@@H](C)O)[C@H]2C1 [Example 12] |  | 0.06 µg/mL (≈ 0.166 µM) | 0.03 µg/mL (≈ 0.0828 µM) |  |  |  |  |  |  | 0.06 µg/mL (≈ 0.166 µM) | 0.25 µg/mL (≈ 0.69 µM) |  | > 32 µg/mL | 0.008 µg/mL (≈ 0.0221 µM) | 0.016 µg/mL (≈ 0.0441 µM) | 0.002 µg/mL (≈ 0.00552 µM) | 0.06 µg/mL (≈ 0.166 µM) | 0.002 µg/mL (≈ 0.00552 µM) | 0.016 µg/mL (≈ 0.0441 µM) | 0.06 µg/mL (≈ 0.166 µM) | MIC (P. rettgeri A22424): 0.5 µg/mL (≈ 1.38 µM); MIC (E. cloacae A-9656): 0.5 µg/mL (≈ 1.38 µM); MIC (E. cloacae A9659): 0.25 µg/mL (≈ 0.69 µM); MIC (P. aeruginosa A21213; [8]): 16 µg/mL (≈ 44.1 µM); ED50 (P. aeruginosa A9843A [6]): > 25 mg/kg; MIC (B. fragilis A22696; overnight 37° C., table 6, read-out: MIC): 0.25 µg/mL (≈ 0.69 µM); MIC (K. pneumoniae A-9664): 0.06 µg/mL (≈ 0.166 µM); MIC (S. aureus A-9537; A9537, 50% serum): 0.03 µg/mL (≈ 0.0828 µM) |
